Common to all, as to format: physicochemical
Data set [1] can be described thus: Storage of solid forms under temperature/humidity or ambient conditions, XRPD re-analysis. As to conditions: for change on storage: 24 hours under ambient conditions.
Data set [2] can be described thus: Light Stability (Suntest Light Box). The settings on record: for Purity (%): HPLC. The protocol: Light Stability of Bendamustine Hydrochloride
Samples of Form 1 and Form 2 of Bendamustine Hydrochloride were stressed in a Suntest Light Box with a light intensity of 250 watts/m2 for 1 week with the black body temperature set to 25° C. A blank of each sample, wrapped in foil for protection, was also included in the experiment. After the experiment, samples were analyzed by XRPD and the purity was determined by HPLC.

The nature of data set [3]: Gravimetric Vapor Sorption (GVS). The settings on record: for solid form by XRPD re-analysis after GVS humidity cycles: reanalysis under ambient conditions, hydrochloride. On the procedure:
Gravimetric Vapor Sorption (GVS)
Sorption isotherms were obtained using a Hiden IGASorp moisture sorption analyser, controlled by CFRSorp software. The sample temperature was maintained at 25° C. by a Huber recirculating water bath. The humidity was controlled by mixing streams of dry and wet nitrogen, with a total flow rate of 250 ml·min-1. The relative humidity was measured by a calibrated Vaisala RH probe (dynamic range of 0-95% RH), located near the sample. The weight change, (mass relaxation) of the sample as a function of % RH was constantly monitored by themicrobalance (accuracy ±0.001 mg). Typically 1-3 mg of sample was placed in a tared mesh stainless steel basket under ambient conditions. The sample was loaded and unloaded at 40% RH and 25° C. (typical room conditions). A moisture sorption isotherm was performed as outlined below (2 scans giving 1 complete cycle). The standard isotherm was performed at 25° C. at 10% RH intervals over a 0-90% RH range.
The software uses a least squares minimization procedure together with a model of the mass relaxation, to predict an asymptotic value. The measured mass relaxation value must be within 5% of that predicted by the software before the next % RH value is selected. The minimum equilibration time was set to 1 hour and the maximum to 4 hours.

The nature of data set [4]: Stability of Forms 1 and 2 (temperature/humidity storage, XRPD). The protocol: Stability of Forms 1 and 2 of Bendamustine Hydrochloride
10 mg of bendamustine hydrochloride Form 1 (A), bendamustine hydrochloride Form 2 (B), and a 1:1 mixture of Forms 1 and 2 (C) were stored under the conditions listed in Table 7. Samples were analyzed by XRPD at 1 day, 2 week, and 6 week time points. […] The rate of this conversion appears to increase with temperature. The purity of Forms 1 and 2 after storage at 4° C./87% RH (5) and 60° C./75% RH (13) for 6 weeks was measured.

Where [5] appears, read: 1 week at 40° C./75% RH, hydrochloride.
The mark [6] stands for this setting: light stressed, 250 watts/m2, 1 week, hydrochloride.

Regarding `Cl.Cn1c(CCCC(=O)O)nc2cc(N(CCCl)CCCl)ccc21` [Form 3, bendamustine hydrochloride], the “change on storage (XRPD)” value in data set [1] (1 month under ambient conditions) is “No significant changes”; in data set [1] (setting [5]) it was “conversion to Form 2”.

With `Cl.Cn1c(CCCC(=O)O)nc2cc(N(CCCl)CCCl)ccc21` [Form 2, bendamustine hydrochloride], the “change on storage (XRPD)” value in data set [1] (one month at 40° C./11% RH) is “became less crystalline”; in data set [1] (one month at 40° C./75% RH), “no significant changes”. In data set [2] (250 watts/m2, 1 week, 25° C., hydrochloride), the “change in crystallinity and purity during light stress test” value is “significant decrease in both crystallinity and purity”. Also, the XRPD result in data set [2] (blank wrapped in foil, 1 week in light box) is listed as “No change”; in data set [2] (setting [6]), “Less crystalline (sample brown in colour)”. Further, the “Purity (%)” value in data set [2] (blank wrapped in foil, 1 week in light box, listed as Form 2 blank, hydrochloride) was 95.6%; in data set [2] (setting [6]) it was 68.7%. The “uptake during GVS analysis” value in data set [3] (between 10 and 15% RH, equating to 1 mole of water) is on record as 4%. Moreover, the “solid form by XRPD re-analysis after GVS humidity cycles” value in data set [3] is reported as “partial conversion occurred”. The purity after storage result in data set [4] (4° C./87% RH (5) and 60° C./75% RH (13) for 6 weeks) is recorded as “No large purity decreases”. Further, the “kinetic stability on storage” value in data set [4] (6 weeks at 4° C./34 to 76% RH, 25° C./43 to 75% RH and 60° C./11 to 75% RH) is “kinetically stable”. Further, the “conversion of Form 2 to Form 1 on storage” value in data set [4] (after 6 weeks) was “No conversion of Form 2 to Form 1”.

For the compound `Cl.Cn1c(CCCC(=O)O)nc2cc(N(CCCl)CCCl)ccc21` [Form 4, bendamustine hydrochloride], in data set [1] (hydrochloride), the change on storage entry is “converted to Form 2”.

`Cl.Cn1c(CCCC(=O)O)nc2cc(N(CCCl)CCCl)ccc21` [Amorphous bendamustine hydrochloride, bendamustine hydrochloride]: the “change on storage (XRPD)” value in data set [1] (setting [5]) was “partial crystallization occurred”. In addition, the change on storage result in data set [1] (hydrochloride) is recorded as “became gummy”. The hygroscopicity entry in data set [1] (inferred from 24 hours under ambient conditions) was “hygroscopic”. For the same compound, the “solid form by XRPD re-analysis after GVS humidity cycles” value in data set [3] is recorded as “converted to Form 2”.
